Values of other authors, collected in patent US6750249B1, “Controlled release oral preparations of esculetin and its derivatives” (priority 1998, dated 2004).

Test system: glycosaminoglycan in the matrix
Conditions: stimulation of interleukin-1 and the like; Japanese Patent Application Laid-open No. 312925/1994

SMILES | depression of a decrease in the amount of glycosaminoglycan in the matrix
Cc1cc(=O)oc2cc(O)c(O)cc12 [4-methyl esculetin] | strongly depress a decrease in the amount of glycosaminoglycan
O=c1ccc2cc(O)c(O)cc2o1 [esculetin] | strongly depress a decrease in the amount of glycosaminoglycan
